Test results reported in patent US12427346B2, “P62 ligand compound, and composition for preventing, ameliorating or treating proteinopathies comprising the same” (AUTOTAC INC., priority 2018, dated 2025).
Where a name gives a salt, the structure may show the parent alone.

Experiments:
Assay type in all cases: cell-based, human
p62 and LC3 [1] = assay: Autophagy activity of control compounds by immunofluorescence staining and confocal microscopy (Experimental Example 6); settings: different concentrations, FIG. 7
Protocol: In order to confirm p62 protein activity and the activity level of autophagy phenomenon of control compounds (YOK-A-1104, YOK-G-1104, YTK-1005, YTK-1105-1), immunofluorescence staining was performed in the same manner as in Experimental Example 4 by using p62 and LC3 as markers. YOK-A-1104 and YOK-G-1104 are compounds having the following structures.
The compounds were treated at different concentrations, and intracellular puncta of p62 or LC3, that is, the degree to which autophagosome was formed and p62 was delivered was observed by a confocal microscopy.

LC3 [2] = assay: Autophagy activity in cultured cells by immunoblotting, concentration series (Experimental Example 2); settings: HeLa cells; 1, 2, 5, 10 and 20 μM, 24 hours; immunoblot, FIG. 3
Protocol: In order to evaluate the autophagy activity efficacy by the compounds (Examples 1-25), HeLa cell line, which is a cell line derived from a cervical cancer patient, was cultured using a DMEM medium containing 10% FBS and 1% streptomycin/penicillin in an incubator with 5% carbon dioxide. As the representative compounds among the present compounds, the compounds of Examples 1, 2, 3, 5, 6, 7, 8, 9, 12 and 13 (Example 5 (YTK-1005), Example 1 (YTK-1105), Example 6 (YTK-1205), Example 7 (YTK-1305), Example 2 (YTK-2205), Example 3 (YTK-3305), Example 8 (YTK-105), Example 9 (YTK-205), Example 14 (YTK-1108), Example 12 (YT 5-7), Example 13 (YT 5-8)), Example 20 (ATB10041), Example 21 (ATB10042), Example 22 (ATB10043), Example 23 (ATB10044), Example 24 (ATB10045), and Example 25 (ATB10046)) were selected. In order to measure autophagy activity according to the treatment with these selected representative compounds, the respective cells were dispensed into 6 well plates. Additional cultures were performed for 24 hours so that the cells were completely attached to the surface of the plate. To find the concentration at which the respective compounds could increase the phenomenon of autophagy, the test compounds were diluted at 1, 2, 5, 10 and 20 μM and treated. After treatment with the respective compounds, the cells were cultured again in a cell incubator for 24 hours, and then the cells were collected. To extract proteins from the collected cells, 100 ul of lysis buffer (20 mM Tris (pH 7.4), 150 mM NaCl, 1% Triton X-100, 2 mM NaF, 2 mM EDTA, 2 mM beta-glycerophosphate, 5 mM sodium orthovanadate, 1 mM PMSF, leupeptin, aprotinin) was injected into each sample, and cells were lysed. Based on the measured total protein concentration, a sample buffer was added to each sample and allowed to react at 100° C. for 5 minutes. 5 ul was taken from the samples after the reaction, and dispensed into each well of acrylamide gel, and then immunoblotting was performed.

LC3 [3] = assay: Autophagy activity in cultured cells by immunoblotting, treatment time (Experimental Example 3); settings: HeLa cells; 5 μM for 1, 3, 6, 12, 24, 48 hours or 10 μM for 24 hours; immunoblot, FIG. 4
Protocol: In order to investigate the autophagy activity efficacy by the compounds (Examples 1-25), immunoblotting was performed in the same manner as in Experimental Example 2 using LC3 as a marker. As for the difference, in order to evaluate the treatment time required for activation and the activity retention time, 5 μM of the representative compounds selected among the present compounds (Example 5 (YTK-1005), Example 6 (YTK-1205), Example 7 (YTK-1305), Example 2 (YTK-2205), Example 3 (YTK-3305), Example 14 (YTK-1108), Example 8 (YTK-105), Example 9 (YTK-205)) were treated for 1, 3, 6, 12, 24, 48 hours. On the other hand, 10 μM of the representative compounds selected among the present compounds (Example 10 (YT 5-1), Example 11 (YT 5-2), Example 16 (YT 8-8), Example 15 (YT 8-7), Example 17 (YTK-107), Example 18 (YTK-207), Example 20 (ATB10041), Example 21 (ATB10042), Example 22 (ATB10043), Example 23 (ATB10044), Example 24 (ATB10045), Example 25 (ATB10046)) were treated for 24 hours.

p62 and LC3 [4] = assay: Autophagy activity by immunofluorescence staining and confocal microscopy (Experimental Example 5); settings: HeLa cells, 5 uM, 24 hours, FIG. 6
Protocol: In order to confirm the p62 protein activity and the activity level of autophagy phenomenon by the compounds (Examples 1-25), immunofluorescence staining was performed using p62 and LC3 as markers. In order to confirm the p62 activity and the activity level of autophagy phenomenon by new p62 ligands and isomers thereof in cultured cells, HeLa cell line, which is a cell line derived from cervical cancer patient, was treated with the novel p62 ligand compounds (YTK-1205, YTK-1305, YTK-2205, YTK-3305, YTK-105, YTK-205, YT 5-1, YT 9-1, YT 5-2, YT 9-2, YT 8-2, YT 8-1, YTK-107, YTK-207) and cultured. Thereafter, as markers of the autophagy phenomenon, the expression level and location of LC3 puncta and the local co-existence with p62 puncta were observed.
For immunofluorescence staining, a cover glass was placed on a 24-well plate, cells were dispensed, cultured for 24 hours, and then treated with 5 uM of the novel p62 ligands according to the present invention. For the action of the compounds, additional cultures were performed for 24 hours, and then the medium was removed. Cells were fixed using formaldehyde at room temperature. In order to prevent non-specific staining, the cells were allowed to react with a blocking solution at room temperature for 1 hour, and then treated with LC3 antibody diluted at a certain ratio using the blocking solution, and allowed to reacted at room temperature for 1 hour. The antibody-treated cells were washed three times with PBS, and goat-derived secondary antibody was diluted at a certain ratio using the blocking solution, and then allowed to react at room temperature for 30 minutes. The cells were washed again with PBS three times, and for intracellular nuclear staining, the expression level, intracellular puncta formation and intracellular coexistence level of p62 and LC3 were observed through a confocal microscopy after DAPI staining.

Compound | p62 activation and oligomerization, delivery to autophagosome, autophagy activity (p62 and LC3 puncta) of control compounds (p62 and LC3 [1]) | autophagy activity (level of LC3) (LC3 [2]) | autophagy activity (level of LC3) (LC3 [3]) | p62 activation and oligomerization, delivery to autophagosome, autophagy activity (p62 and LC3 puncta, local coexistence) (p62 and LC3 [4])
CCOC(=O)C(C)NC[C@@H](O)COc1ccc(OCc2ccccc2)c(OCc2ccccc2)c1 (stereo partly drawn) [YOK ALA-1104, Ethyl (R)-(3-(3,4-bis(benzyloxy)phenoxy)-2-hydroxypropyl)alanineate] | allow the activation and oligomerization of p62 proteins and then show the efficacy of delivering them to autophagosome and simultaneously increasing autophagy activity | – | – | –
COC(=O)CNC[C@@H](O)COc1ccc(OCc2ccccc2)c(OCc2ccccc2)c1 [YOK R-Gly-1104, Methyl (R)-(3-(3,4-bis(benzyloxy)phenoxy)-2-hydroxypropyl)glycineate] | allow the activation and oligomerization of p62 proteins and then show the efficacy of delivering them to autophagosome and simultaneously increasing autophagy activity | – | – | –
OCCCCc1ccc(OCc2ccccc2)c(OCc2ccccc2)c1 [YTK HCl-1105-1, 4-(3,4-bis(benzyloxy)phenyl)butan-1-ol] | allow the activation and oligomerization of p62 proteins and then show the efficacy of delivering them to autophagosome and simultaneously increasing autophagy activity | – | – | –
OCCNCc1cccc(OCCc2ccccc2)c1 [YTK-205, 2-((3-(phenethoxy)benzyl)amino)ethan-1-ol] | – | increasing the autophagy activity | increasing the autophagy activity | allow the activation and oligomerization of p62 proteins, and then show the efficacy of delivering them to autophagosome and simultaneously increasing autophagy activity
OCCNCc1ccc(OCc2ccccc2)c(O)c1 [YTK-HCl-1005, 2-(benzyloxy)-5-(((2-hydroxyethyl)amino)methyl)phenol] | allow the activation and oligomerization of p62 proteins and then show the efficacy of delivering them to autophagosome and simultaneously increasing autophagy activity | increasing the autophagy activity | increasing the autophagy activity | –
